Assay results reported in US11020358B2, “Method for the anti-senescence of and/or rejuvenating stem cells” (GWO XI STEM CELL APPLIED TECHNOLOGY CO., LTD., priority 2014, dated 2021).

How the values were obtained:
ADSCs [1] = experiment: Adipogenic differentiation assay (Oil Red O); format: cell-based, human; conditions: H2O2 group ADSCs (100 μM 2 h), compared to untreated group
Description: Four portions of equal volume of the above culture medium containing the sub-cultured ADSCs were separately handled by adding thereinto H2O2 (purchased from Sigma-Aldrich) at a final concentration of 100 μM and reacting for 2 hours to induce senescence of the ADSCs, replacing the culture medium with a fresh culture medium, adding thereinto TC (trans-cinnamaldehyde, purchased from Sigma-Aldrich) at a final concentration of 0, 2, 4 or 6 μM and reacting for 6 hours, so as to obtain “H2O2 group (i.e., treated with H2O2 for 2 hours, but not treated with TC),” “H2O2+TC2 group (i.e., treated with H2O2 for 2 hours and then treated with 2 μM of TC for 6 hours),” “H2O2+TC4 group (i.e., treated with H2O2 for 2 hours and then treated with 4 μM of TC for 6 hours),” and “H2O2+TC6 group (i.e., treated with H2O2 for 2 hours and then treated with 6 μM of TC for 6 hours)” ADSCs. […]
After being photographed, the oil droplets were extracted from the cells in each sample with isopropanol containing 4% Nonidet P-40. The absorbance of the oil droplets at a wavelength of 510 nm (i.e., OD510) of each sample were measured, wherein the absorbance corresponds to the number of cells in orange-red color (i.e., cells present after adipogenic differentiation).

ADSCs [2] = experiment: Microarray analysis of gene expression in ADSCs; format: cell-based, human; conditions: H2O2+TC6 group ADSCs, H2O2 group set as one fold; p < 0.05
Description: Four portions of equal volume of the above culture medium containing the sub-cultured ADSCs were separately handled by adding thereinto H2O2 (purchased from Sigma-Aldrich) at a final concentration of 100 μM and reacting for 2 hours to induce senescence of the ADSCs, replacing the culture medium with a fresh culture medium, adding thereinto TC (trans-cinnamaldehyde, purchased from Sigma-Aldrich) at a final concentration of 0, 2, 4 or 6 μM and reacting for 6 hours, so as to obtain “H2O2 group (i.e., treated with H2O2 for 2 hours, but not treated with TC),” “H2O2+TC2 group (i.e., treated with H2O2 for 2 hours and then treated with 2 μM of TC for 6 hours),” “H2O2+TC4 group (i.e., treated with H2O2 for 2 hours and then treated with 4 μM of TC for 6 hours),” and “H2O2+TC6 group (i.e., treated with H2O2 for 2 hours and then treated with 6 μM of TC for 6 hours)” ADSCs. Each of the total cellular RNA of ADSCs of “H2O2 group” and “H2O2+TC6 group” from Experiment (3-1) was handled as follows. […] The products thus obtained are single strand cDNA of these genes. The cDNA was hybridized with a gene chip (Affymetrix GeneChip Human Genome U133 plus 2.0 Array, Affymetrix). Then, the gene chip was scanned and analyzed with a microarray scanner system (Gene Chip® Scanner 3000).

Structure (SMILES) | cell number after adipogenic differentiation (OD510) (ADSCs [1]) | CCND1 gene expression level (ADSCs [2]) [Folds] | E2F6 gene expression level (ADSCs [2]) [Folds] | EIF5 gene expression level (ADSCs [2]) [Folds] | GADD45B gene expression level (ADSCs [2]) [Folds] | NYFA gene expression level (ADSCs [2]) [Folds] | PCNA gene expression level (ADSCs [2]) [Folds] | PIM1 gene expression level (ADSCs [2]) [Folds] | POLR3H gene expression level (ADSCs [2]) [Folds] | SIRT1 gene expression level (ADSCs [2]) [Folds] | hTERT gene expression level (ADSCs [2]) [Folds] | p16 gene expression level (ADSCs [2]) [Folds] | p53 gene expression level (ADSCs [2]) [Folds]
OO [H2O2, reference compound] | significantly reduced |  |  |  |  |  |  |  |  |  |  |  | 
O=C/C=C/c1ccccc1 [TC, trans-cinnamaldehyde] |  | 5.8 | 2.2 | 3.4 | −4.6 | 7.2 | 2 | −4.4 | 2.2 | 2.4 | 2 | −1.8 | −1
